Calls of active or inactive are those of the source.
Assays:
[1] = molecular target: T1, COUP transcription factor 2 (Homo sapiens, UniProt P24468); assay: Luminescence-based cell-based high throughput dose response assay to identify inhibitors of COUP-TFII (NR2F2).; assay type: functional;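 further: HEK293 cells transiently cotransfected with COUP-TFII expression vector and reporter; luciferase reporter luminescence driven by COUP-TFII from the pX2-168 reporter plasmid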
T1 sequence (P24468 whole entry): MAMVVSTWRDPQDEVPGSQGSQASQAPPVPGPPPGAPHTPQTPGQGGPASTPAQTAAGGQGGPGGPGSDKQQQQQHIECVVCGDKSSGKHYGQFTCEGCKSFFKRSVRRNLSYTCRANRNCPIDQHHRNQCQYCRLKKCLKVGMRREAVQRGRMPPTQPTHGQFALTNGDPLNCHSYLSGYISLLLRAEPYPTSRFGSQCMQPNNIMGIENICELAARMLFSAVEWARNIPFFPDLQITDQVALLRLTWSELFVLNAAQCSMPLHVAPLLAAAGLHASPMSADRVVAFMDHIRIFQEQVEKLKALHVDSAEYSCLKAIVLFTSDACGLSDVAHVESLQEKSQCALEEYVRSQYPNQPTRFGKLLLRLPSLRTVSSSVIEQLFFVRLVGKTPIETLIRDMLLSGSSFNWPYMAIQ

[2] = molecular target: T2, Tyrosyl-DNA phosphodiesterase 2 (Homo sapiens, UniProt O95551); assay: potency against TDP2 phosphodiesterase activity – biochemical, epi absorbance, IC50, dose response (AID 743297)
T2 sequence (O95551 whole entry): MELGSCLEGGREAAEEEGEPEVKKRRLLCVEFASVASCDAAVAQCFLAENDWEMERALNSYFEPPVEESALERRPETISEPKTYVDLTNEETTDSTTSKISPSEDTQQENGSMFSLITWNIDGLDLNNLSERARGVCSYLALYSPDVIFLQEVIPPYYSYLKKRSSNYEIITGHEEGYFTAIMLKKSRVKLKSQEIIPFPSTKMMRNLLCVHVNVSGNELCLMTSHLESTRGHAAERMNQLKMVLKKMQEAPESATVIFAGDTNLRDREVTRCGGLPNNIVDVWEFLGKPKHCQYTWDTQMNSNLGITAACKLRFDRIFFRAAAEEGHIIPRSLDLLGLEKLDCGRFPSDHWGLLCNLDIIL

Protein RecA = molecular target: T3, Protein RecA (Mycobacterium tuberculosis, UniProt P9WHJ3); assay: Fluorescence Cell-Free Homogeneous Dose Retest to Identify Inhibitors of RecA-Intein Splicing Activity. [Related pubchem assays (depositor defined):AID2097, AID2223, AID489010, AID492950]; assay type: functional
T3 sequence (P9WHJ3 whole entry): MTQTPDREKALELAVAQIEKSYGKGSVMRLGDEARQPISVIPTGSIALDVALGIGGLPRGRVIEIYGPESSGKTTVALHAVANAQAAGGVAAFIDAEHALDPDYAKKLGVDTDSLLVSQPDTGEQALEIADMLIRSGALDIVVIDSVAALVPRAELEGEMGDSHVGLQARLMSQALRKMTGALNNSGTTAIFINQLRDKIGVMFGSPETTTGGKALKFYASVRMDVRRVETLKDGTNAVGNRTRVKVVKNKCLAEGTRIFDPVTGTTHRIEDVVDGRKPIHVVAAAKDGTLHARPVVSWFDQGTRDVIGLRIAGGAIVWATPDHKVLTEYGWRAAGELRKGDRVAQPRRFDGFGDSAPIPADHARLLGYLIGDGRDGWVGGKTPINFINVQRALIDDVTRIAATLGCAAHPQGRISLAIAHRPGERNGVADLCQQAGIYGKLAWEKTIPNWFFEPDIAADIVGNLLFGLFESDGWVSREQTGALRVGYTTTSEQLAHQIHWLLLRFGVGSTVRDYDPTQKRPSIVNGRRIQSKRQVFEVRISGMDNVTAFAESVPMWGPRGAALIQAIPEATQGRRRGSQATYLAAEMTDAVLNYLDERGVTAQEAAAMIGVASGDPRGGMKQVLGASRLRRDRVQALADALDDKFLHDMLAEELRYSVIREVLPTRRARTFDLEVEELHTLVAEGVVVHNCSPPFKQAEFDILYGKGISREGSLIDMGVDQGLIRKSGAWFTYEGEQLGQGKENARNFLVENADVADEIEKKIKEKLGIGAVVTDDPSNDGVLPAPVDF

[3] = luciferase reporter signal suppression in cells – H4 neuroglioma cells, luminescence, dose response (AID 1990); assay type: functional, cell-based
[4] = alpha-synuclein stem-loop luciferase translation blockers – H4 neuroglioma cells, luminescence, confirmation (AID 1988); assay type: functional, cell-based
[5] = NIH-3T3 fibroblast cytotoxicity, dose response, cytotoxicity control, cell-based, fluorescence, Alamar Blue, secondary assay (AID 2327); assay type: functional;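 further: NIH-3T3 mouse fibroblasts cultured with fluconazole at 8 µg/mL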
[6] = fluconazole-exposed Candida albicans growth modulators – fluorescence, retest, confirmation (AID 2467); assay type: functional, cell-based
cells = assay type: functional, cell-based; details: HEK-CNG
Galanin receptor type 3 = molecular target: T4, Galanin receptor type 3 (Homo sapiens, UniProt O60755); assay: Fluorescence-based cell-based primary high throughput dose response assay to identify antagonists of the Galanin Receptor 3 (GalR3).; assay type: functional
T4 sequence (O60755 whole entry): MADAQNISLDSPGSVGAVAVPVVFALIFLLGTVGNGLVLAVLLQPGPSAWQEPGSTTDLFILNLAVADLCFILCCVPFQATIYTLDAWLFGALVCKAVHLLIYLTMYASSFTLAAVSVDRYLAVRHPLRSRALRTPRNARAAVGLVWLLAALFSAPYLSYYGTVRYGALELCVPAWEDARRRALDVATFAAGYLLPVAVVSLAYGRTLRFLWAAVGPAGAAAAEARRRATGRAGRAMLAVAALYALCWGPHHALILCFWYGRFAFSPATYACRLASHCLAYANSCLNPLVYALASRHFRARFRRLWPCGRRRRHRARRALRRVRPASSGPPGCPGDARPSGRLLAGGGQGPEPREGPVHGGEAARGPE

[7] = molecular target: T5, Histone-lysine N-methyltransferase NSD2 (Homo sapiens, UniProt O96028); assay type: biochemical
T5 sequence (O96028 whole entry): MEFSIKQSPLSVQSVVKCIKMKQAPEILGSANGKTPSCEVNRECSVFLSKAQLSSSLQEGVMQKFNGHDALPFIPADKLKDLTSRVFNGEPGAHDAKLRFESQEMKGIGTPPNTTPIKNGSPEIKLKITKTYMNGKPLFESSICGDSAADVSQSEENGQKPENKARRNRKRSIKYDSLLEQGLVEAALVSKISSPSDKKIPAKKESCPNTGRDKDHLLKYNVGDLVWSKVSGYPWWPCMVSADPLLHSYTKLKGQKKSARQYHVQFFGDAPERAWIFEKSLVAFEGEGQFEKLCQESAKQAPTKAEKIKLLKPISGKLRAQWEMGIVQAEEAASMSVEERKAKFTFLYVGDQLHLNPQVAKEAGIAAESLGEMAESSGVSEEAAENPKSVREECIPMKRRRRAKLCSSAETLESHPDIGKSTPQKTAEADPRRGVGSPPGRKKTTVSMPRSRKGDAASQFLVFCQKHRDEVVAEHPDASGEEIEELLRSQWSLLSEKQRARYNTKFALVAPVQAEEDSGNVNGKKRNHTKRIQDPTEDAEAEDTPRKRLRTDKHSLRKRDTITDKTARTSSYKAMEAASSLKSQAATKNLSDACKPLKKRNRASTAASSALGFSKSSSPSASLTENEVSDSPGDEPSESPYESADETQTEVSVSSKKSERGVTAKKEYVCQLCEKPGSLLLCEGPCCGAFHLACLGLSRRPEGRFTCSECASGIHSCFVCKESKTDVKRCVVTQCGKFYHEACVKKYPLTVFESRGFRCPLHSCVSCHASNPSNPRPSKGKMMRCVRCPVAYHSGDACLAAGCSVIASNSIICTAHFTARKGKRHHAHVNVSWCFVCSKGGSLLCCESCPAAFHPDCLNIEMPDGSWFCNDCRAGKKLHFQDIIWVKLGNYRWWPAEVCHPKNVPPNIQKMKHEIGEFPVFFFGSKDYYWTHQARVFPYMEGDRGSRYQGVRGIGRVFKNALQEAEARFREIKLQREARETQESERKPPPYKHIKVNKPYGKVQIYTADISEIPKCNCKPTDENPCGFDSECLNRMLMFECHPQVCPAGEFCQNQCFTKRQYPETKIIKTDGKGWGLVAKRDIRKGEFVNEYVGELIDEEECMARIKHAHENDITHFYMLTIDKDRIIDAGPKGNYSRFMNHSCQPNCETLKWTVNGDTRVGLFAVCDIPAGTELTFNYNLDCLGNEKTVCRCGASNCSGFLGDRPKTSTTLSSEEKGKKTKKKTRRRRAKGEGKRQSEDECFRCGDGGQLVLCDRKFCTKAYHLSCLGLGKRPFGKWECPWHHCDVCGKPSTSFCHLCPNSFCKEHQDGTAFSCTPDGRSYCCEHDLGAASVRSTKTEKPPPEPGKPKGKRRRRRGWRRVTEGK

Nonstructural protein 1 = Nonstructural protein 1 (Influenza A virus, UniProt Q194T2); assay type: functional, Influenza A virus (A/California/07/2009(H1N1))
Sequence of Nonstructural protein 1 (Q194T2 whole entry): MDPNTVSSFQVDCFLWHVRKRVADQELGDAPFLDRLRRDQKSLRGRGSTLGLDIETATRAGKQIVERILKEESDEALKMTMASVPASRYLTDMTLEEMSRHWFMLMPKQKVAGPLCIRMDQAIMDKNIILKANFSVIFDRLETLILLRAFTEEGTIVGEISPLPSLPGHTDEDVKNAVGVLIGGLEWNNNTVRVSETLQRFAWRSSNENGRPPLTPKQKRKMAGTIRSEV

[8] = Luminescence Cell-Based Dose Response HTS to Identify Inhibitors of 5'UTR Stem-Loop Driven Prion Protein mRNA Translation in H4 Neuroglioblastoma Cells. [Related pubchem assays: 1827 (Project Summary), 1813 (Primary HTS)]; assay type: functional
[9] = reduction of Shn3 3'UTR-driven luciferase in osteoblasts – cell-based, Clone20 osteoblasts, firefly luciferase, cherry-picked, dose response (AID 624132); assay type: functional;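 further: firefly luciferase luminescence from reporter carrying the Shn3 3'UTR in osteoblasts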
[10] = loss of viability in HepG2 cells – cell-based, CellTiter-Glo, cherry-picked, cytotoxicity control for Shn3 inhibitor project, dose response (AID 624134); assay type: functional
[11] = non-specific 3'UTR reporter inhibition in Clone20-Shn3RL – cell-based, Renilla luciferase, cherry-picked, counter-screen for Shn3 inhibitor project, dose response (AID 624133); assay type: functional
Caspase-6 = molecular target: T6, Caspase-6 (Homo sapiens, UniProt P55212); assay: inhibition of CASP6 peptide cleavage – biochemical, VEID-R110 fluorescence, cherry-pick, dose response (AID 720632)
T6 sequence (P55212 whole entry): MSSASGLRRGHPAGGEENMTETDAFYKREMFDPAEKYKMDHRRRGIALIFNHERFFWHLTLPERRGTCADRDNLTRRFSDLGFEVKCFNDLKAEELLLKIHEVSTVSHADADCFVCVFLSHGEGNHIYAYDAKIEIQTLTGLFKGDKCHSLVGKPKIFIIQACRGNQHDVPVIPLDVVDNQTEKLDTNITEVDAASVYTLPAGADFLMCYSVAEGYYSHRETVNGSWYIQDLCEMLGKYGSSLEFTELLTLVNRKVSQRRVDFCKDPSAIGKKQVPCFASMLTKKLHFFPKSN

[12] = molecular target: Potassium channel subfamily K member 9 (Homo sapiens, UniProt Q9NPC2); assay: KCNK9 flux blockade, concentration-response – cell-based, FluxOR thallium flux, selectivity assay for TASK1 inhibitor project, SAR follow-up (AID 652211); assay type: functional;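 further: potency is for inhibitors of the channel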
Sequence of Potassium channel subfamily K member 9 (Q9NPC2 whole entry): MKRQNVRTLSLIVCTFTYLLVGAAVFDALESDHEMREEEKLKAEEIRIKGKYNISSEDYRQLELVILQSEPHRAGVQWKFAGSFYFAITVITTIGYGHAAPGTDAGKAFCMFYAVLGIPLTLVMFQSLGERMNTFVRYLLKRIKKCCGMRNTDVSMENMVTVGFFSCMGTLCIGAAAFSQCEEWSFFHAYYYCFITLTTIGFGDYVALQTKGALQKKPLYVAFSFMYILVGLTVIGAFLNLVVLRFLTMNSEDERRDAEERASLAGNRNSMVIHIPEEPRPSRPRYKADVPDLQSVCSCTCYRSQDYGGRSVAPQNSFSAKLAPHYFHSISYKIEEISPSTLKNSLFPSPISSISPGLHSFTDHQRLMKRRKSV

[13] = reduced cellular PGC1a acetyl-lysine signal – cell-based, cherry-picked samples, dose response (AID 720514); assay type: functional;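 further: potency may reflect raised or lowered acetylation signal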
[14] = toxicity toward HepG2 liver cells – cell-based, plate reader, cherry-pick, antagonist series, cytotoxicity control, dose response (AID 743416); assay type: functional
[15] = viability loss in HEK293 cells – cell-based, plate reader, cherry-picked samples, cytotoxicity control, dose response (AID 743446); assay type: functional
[16] = A549 cell cytotoxicity, dose response, cytotoxicity control, plate reader, cherry-pick, antagonist series (AID 743412); assay type: functional, cell-based
[17] = blockade of melanocortin 4 receptor signaling – cell-based, plate reader, cherry pick, counter-screen for LGR2 antagonist project, dose response (AID 743444); assay type: functional;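 further: transfected HEK 293 cells stimulated with alpha-MSH peptide; potency of inhibitors of the alpha-MSH evoked signal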
[18] = blockers of bursicon-stimulated LGR2 cAMP reporter – cell-based, HEK293, CRE-luciferase reporter, cherry pick, set 2, dose response (AID 743343); assay type: functional;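 further: transfected cells were stimulated with diluted bursicon conditioned medium after compound addition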

Cc1c(C)n(Cc2ccccc2)c2ncnc(Cl)c12
IC50 [1]: 10.7 µM (inactive)

S=C(Nc1ccc2nsnc2c1)N1CCCCCC1
IC50 [2]: > 128 µM (inactive)
EC50 (Protein RecA): 46.7 µM (active)

CC[n+]1c(/C=C/C=C/c2ccc(N(C)C)cc2)sc2ccccc21.[O-][Cl+3]([O-])([O-])[O-]
EC50 [3]: 43.6 µM (active)
EC50 [4]: 0.666 µM (active)
EC50 [5]: 82.9 µM (active)
EC50 [6]: < 0.03 µM (active)
EC50 (cells): > 29.9 µM (inactive)
IC50 (Galanin receptor type 3): > 29.9 µM (inactive)
AC50 [7]: 7.84 µM (active)
IC50 (Nonstructural protein 1): 5.05 µM (active)
EC50 [8]: 11.2 µM (active)

CC(=O)c1c(C)[nH]c(C(=O)COc2cc(C)ccc2C(C)C)c1C
IC50 [1]: 5.74 µM (active)
AC50 [9]: 1.25 µM (active)
EC50 (cells): > 29.9 µM (inactive)
IC50 (Galanin receptor type 3): 1.24 µM (active)
AC50 [10]: 3.12 µM (active)
AC50 [11]: 8.41 µM (active)

O=C1NC(Cc2ccc(O)cc2)c2nc3ccc(Br)cc3c(=O)n2-c2ncccc21 (stereo unspecified)
AC50 (Caspase-6): 35.4 µM (active)

Cc1cccc(C(=O)Nc2cccc(NC(=O)c3ccccc3C)c2)c1
IC50 [12]: 0.94 µM (active)

O=C(Nc1cccc(NC(=O)c2ccccc2Cl)c1)c1ccccc1
IC50 [12]: 33.4 µM (active)

C[C@H]1CN([C@@H](C)CO)S(=O)(=O)c2ccc(C#CC3CCCCC3)cc2O[C@@H]1CN(C)Cc1cccnc1
AC50 [13]: 10.4 µM (active)

C[C@@H]1CN([C@H](C)CO)C(=O)Cc2cc(NC(=O)Nc3ccc(F)cc3)ccc2O[C@@H]1CN(C)CC1CCCCC1
AC50 [14]: 14.6 µM (active)
AC50 [15]: 16.2 µM (active)
AC50 [16]: 15 µM (active)
AC50 [17]: 56.6 µM (active)

N#C[C@H]1[C@H](c2ccc(C#Cc3ccccc3F)cc2)[C@H](CO)N1C(=O)C1CCCC1
AC50 [14]: 34.5 µM (active)
AC50 [15]: 8.77 µM (active)
AC50 [16]: 23.6 µM (active)
AC50 [18]: 5.64 µM (active)
AC50 [17]: 4.57 µM (active)

Source: ChEMBL document CHEMBL1201862, “PubChem BioAssay data set” (2004)
